# Experimental data as given in patent US20250275976A1, “Methods of Treating Neuroinflammatory Conditions” (Athira Pharma, Inc., priority 2022, published 2025).
# Where two headings read alike, the source gives them in different places. Square brackets hold non-standard residues; d marks the D form. Peptide text beside a SMILES is read from it. * marks the point of attachment. Hexanoyl = CCCCCC(=O)*; Ahx = NCCCCCC(=O)O
# Columns and labels:
# Prp-TDP43^A315T mice = type: in vivo
# Procedure: Extranuclear accumulation of TDP-43 protein is a pathological hallmark of a number of neurological diseases. […] Male Prp-TDP43^A315T mice (N=10 mice per group) at 3 weeks of age were administered daily treatments of test compounds. Compound A19 was administered via subcutaneous injection, and Compound 5a and Compound 6a were administered via oral gavage. After 2 months of treatment, plasma samples were collected for cytokine quantification. […] Plasma IL-6 and TNF-α cytokine expression levels were determined using the ELISA method. The submandibular vein was punctured with a lancet and a blood drop was collected directly on a microtube containing EDTA as anticoagulant. Samples were centrifuged for 15 minutes at 1000×g at 4° C. within 20 minutes of collection. 20 μl of plasma supernatant was stored at −20° C. before ELISA analysis.
# Plasma was diluted at 1:10 in sterile PBS, and IL-6 and TNF-α quantification was performed in duplicate for each animal using 10 μl of sample per well in 96-well plates using the ELISA method (IL-6: Signa-Aldrich Cat #RAB0308, TNF-α: Sigma-Aldrich Cat #RAB0477). Statistical analysis was carried out by 2-way ANOVA with Dunnett's multiple comparisons post-test with compound-treated samples compared to vehicle-treated samples.
# [1] = tested on: primary culture of both cortical neurons and microglia; experiment: Microglial activation (Iba1 area) after Aβ1-42 challenge; type: cell-based; set-up: key to Significant decrease in Iba1 area, compared to vehicle treated (Aβ challenge): “NS” indicates a non-significant change in Iba1 area; “+” indicates a p value < 0.05 in Fisher's LSD post-test compared to Aβ challenged
# BV2 microglia [2] = experiment: pAKT in LPS-stimulated BV2 microglia (HTRF); type: cell-based; conditions: for Inflammatory Readout: pAKT (significance of reduction): LPS pre-treatment 45 minutes, compound 1 hour
# Source text: Microglia are the resident immune cells of the brain and, when activated by pathological conditions, promote broad-spectrum neuroinflammation. When activated by toxic exogenous substances, microglia produce excessive reactive oxygen species (ROS), nitric oxide (NO), and proinflammatory cytokines, which further propagates disease pathogenesis. BV2 microglia were used as an in-vitro cell model to evaluate mechanisms relevant to inflammation in the CNS. Upon activation of TLR4 with LPS, microglia are activated and trigger excessive oxidative stress, a process that is partially mediated by AKT phosphorylation (pAKT) and activation. Microglia activation also leads to a range of changes in gene expression.
# Compound A19 active metabolite (Compound A19-AM) was investigated for whether it could reduce the inflammatory effect of LPS in microglia. Inflammatory activation of BV2 microglia cells was stimulated by pre-treatment with LPS for 45 minutes, followed by the addition of test compound for 1 hour (pAKT) or 23.5 hours (NO and gene expression panel). For pAKT measurement, cells were lysed and the pAKT measurement was conducted using the HTRF system. For NO production, culture supernatants were collected and assessed for the presence of nitrite, a primary metabolic product of nitric oxide.
# Quantification of nitrite production in cell culture supernatants was accomplished using the Griess Reagent System (Promega, G2930). Measurement of pAKT was assessed utilizing Phospho-AKT 1/2/3 (Ser473) […] Cellular Detection Kit (CisBio, 64AKSPEH).
# Data analysis was performed via One-way ANOVA with Dunnett's multiple comparisons test compared to LPS-stimulated, vehicle treated cultures using Prism statistical software (GraphPad). Tabular data indicates significance of reduction in the indicated analyte at the indicated dose.
# BV2 microglia [3] = experiment: Quantigene gene expression panel in LPS-stimulated BV2 microglia; type: cell-based; set-up: key to Significant reduction in target transcript abundance compared to LPS-stimulated BV2 lysates: NLRP3 / Significant reduction in target transcript abundance compared to LPS-stimulated BV2 lysates: IL-1β / Significant reduction in target transcript abundance compared to LPS-stimulated BV2 lysates: IL-6 / Significant reduction in target transcript abundance compared to LPS-stimulated BV2 lysates: iNOS: “NS” indicates a non-significant reduction indicated gene expression compared to LPS-treated cultures; “+” indicates a p value < 0.05; “++” indicates a p value < 0.01; “+++” indicates a p value < 0.001; “+++” indicates a p value < 0.0005 in Dunnett's multiple comparison
# Procedure: Changes in gene expression in BV2 cells in response to stimulation with LPS and whether or not these gene expression changes are influenced by treatment with Compound A19-AM was also examined. Inflammatory activation of BV2 microglia was stimulated by pre-treatment with LPS for 45 minutes followed by the addition of test compound for 23.5 hours. Cell cultures were then lysed and processed for expression profiling via bead-based transcript quantification using the Quantigene multiplex gene expression assay (ThermoFisher) and a custom array of target transcripts relevant to inflammatory activation. Expression of a major component of the inflammasome (NLRP3), cytokines (TNF-α, IL-1β, and IL-6), and inducible nitric oxide synthase (iNOS) were assessed. Expression data were quantified as fold change compared to unstimulated cell cultures. Statistical analysis consisted of one-way ANOVA with Dunnett's multiple comparisons post-test compared to LPS-stimulated lysates. Gene expression data is represented in Table 14. Expression of all inflammatory transcript targets were induced by treatment with LPS.
# [4] = 2 months of treatment, doses as in the value
compound,measurement,setting,value
CCC(C)CN1CC2N(Cc3ccc(C(F)(F)F)cc3)CCC(=O)N2[C@@H](C)C1=O (some centres unmarked) [Compound 5a],Significant decrease in plasma cytokine expression after 2 months of treatment: IL-6,Prp-TDP43^A315T mice; 2 mg/kg PO daily,++++ (++++ = p < 0.0001)
same,Significant decrease in plasma cytokine expression after 2 months of treatment: TNF-α,Prp-TDP43^A315T mice; 2 mg/kg PO daily,++++ (++++ = p < 0.0001)
same,Significant decrease in plasma cytokine expression after 2 months of treatment: IL-6,Prp-TDP43^A315T mice; 10 mg/kg PO daily,++++ (++++ = p < 0.0001)
same,Significant decrease in plasma cytokine expression after 2 months of treatment: TNF-α,Prp-TDP43^A315T mice; 10 mg/kg PO daily,++++ (++++ = p < 0.0001)
same,Significant decrease in plasma cytokine expression after 2 months of treatment: IL-6,Prp-TDP43^A315T mice; 20 mg/kg PO daily,++++ (++++ = p < 0.0001)
same,Significant decrease in plasma cytokine expression after 2 months of treatment: TNF-α,Prp-TDP43^A315T mice; 20 mg/kg PO daily,++++ (++++ = p < 0.0001)
same,Plasma IL-6 expression (result in words),Prp-TDP43^A315T mice; [4],"significantly reduced both cytokine levels at doses of 2, 10, and 20 mg/kg"
same,Plasma TNF-α expression (result in words),Prp-TDP43^A315T mice; [4],"significantly reduced both cytokine levels at doses of 2, 10, and 20 mg/kg"
"CCCCCC(=O)N[C@@H](Cc1ccc(O)cc1)C(=O)N[C@H](C(=O)NCCCCCC(N)=O)[C@@H](C)CC [Compound A19 active metabolite, dihexa] (Hexanoyl-Tyr-Ile-[Ahx]-NH2)","Significant decrease in Iba1 area, compared to vehicle treated (Aβ challenge)","[1]; 100 nM, Pre-(60 min) and Co- Aβ challenge",+ (“+” indicates a p value < 0.05 in Fisher's LSD post-test compared to Aβ challenged)
same,"Significant decrease in Iba1 area, compared to vehicle treated (Aβ challenge)","[1]; 100 nM, Pre-(60 min) and post-(24 h) Aβ challenge",NS
same,"Significant decrease in Iba1 area, compared to vehicle treated (Aβ challenge)","[1]; 100 nM, Pre-(60 min), Co-, and post-(24 h) Aβ challenge",+ (“+” indicates a p value < 0.05 in Fisher's LSD post-test compared to Aβ challenged)
same,"Significant decrease in Iba1 area, compared to vehicle treated (Aβ challenge)","[1]; 1 μM, Pre-(60 min) and Co- Aβ challenge",+ (“+” indicates a p value < 0.05 in Fisher's LSD post-test compared to Aβ challenged)
same,"Significant decrease in Iba1 area, compared to vehicle treated (Aβ challenge)","[1]; 1 μM, Pre-(60 min) and post-(24 h) Aβ challenge",NS
same,"Significant decrease in Iba1 area, compared to vehicle treated (Aβ challenge)","[1]; 1 μM, Pre-(60 min), Co-, and post-(24 h) Aβ challenge",+ (“+” indicates a p value < 0.05 in Fisher's LSD post-test compared to Aβ challenged)
same,"Significant decrease in Iba1 area, compared to vehicle treated (Aβ challenge)","[1]; 60 min pre-Aβ challenge, concentration not given",+ (“+” indicates a p value < 0.05 in Fisher's LSD post-test compared to Aβ challenged)
same,"Microglial activation, as measured by Iba1 area (result in words)",[1]; Aβ1-42 challenge 72 hours,significantly reduced microglial activation
same,AKT phosphorylation (result in words),BV2 microglia [2]; LPS-stimulated BV2,significantly reduced
same,Inflammatory Readout: pAKT (significance of reduction),BV2 microglia [2]; dose 0.001 nM,++ (“++” indicates a p value < 0.005 in Dunnett's multiple comparison)
same,Inflammatory Readout: pAKT (significance of reduction),BV2 microglia [2]; dose 1 nM,++ (“++” indicates a p value < 0.005 in Dunnett's multiple comparison)
same,Expression of IL-1β (result in words),BV2 microglia [3]; concentrations as in the value,reduced at treatment concentrations of 100 nM and 1 μM
same,Expression of IL-6 (result in words),BV2 microglia [3]; concentrations as in the value,reduced at by treatment with 1 μM
same,Expression of NLRP3 (result in words),BV2 microglia [3]; concentrations as in the value,significantly reduced by treatment with 100 nM and 1 μM
same,Expression of TNF-α (result in words),BV2 microglia [3]; concentrations as in the value,reduced by treatment with A19-AM at all tested concentrations
same,Expression of iNOS (result in words),BV2 microglia [3]; concentrations as in the value,significantly reduced by treatment with A19-AM at concentrations of 100 nM and 1 μM
same,Significant reduction in target transcript abundance compared to LPS-stimulated BV2 lysates: IL-1β,BV2 microglia [3]; dose 1 pM,NS
same,Significant reduction in target transcript abundance compared to LPS-stimulated BV2 lysates: IL-6,BV2 microglia [3]; dose 1 pM,NS
same,Significant reduction in target transcript abundance compared to LPS-stimulated BV2 lysates: NLRP3,BV2 microglia [3]; dose 1 pM,NS
same,Significant reduction in target transcript abundance compared to LPS-stimulated BV2 lysates: iNOS,BV2 microglia [3]; dose 1 pM,NS
same,Significant reduction in target transcript abundance compared to LPS-stimulated BV2 lysates: IL-1β,BV2 microglia [3]; dose 10 pM,NS
same,Significant reduction in target transcript abundance compared to LPS-stimulated BV2 lysates: IL-6,BV2 microglia [3]; dose 10 pM,NS
same,Significant reduction in target transcript abundance compared to LPS-stimulated BV2 lysates: NLRP3,BV2 microglia [3]; dose 10 pM,NS
same,Significant reduction in target transcript abundance compared to LPS-stimulated BV2 lysates: iNOS,BV2 microglia [3]; dose 10 pM,NS
same,Significant reduction in target transcript abundance compared to LPS-stimulated BV2 lysates: IL-1β,BV2 microglia [3]; dose 100 pM,NS
same,Significant reduction in target transcript abundance compared to LPS-stimulated BV2 lysates: IL-6,BV2 microglia [3]; dose 100 pM,NS
same,Significant reduction in target transcript abundance compared to LPS-stimulated BV2 lysates: NLRP3,BV2 microglia [3]; dose 100 pM,NS
same,Significant reduction in target transcript abundance compared to LPS-stimulated BV2 lysates: iNOS,BV2 microglia [3]; dose 100 pM,NS
same,Significant reduction in target transcript abundance compared to LPS-stimulated BV2 lysates: IL-1β,BV2 microglia [3]; dose 100 nM,+ (“+” indicates a p value < 0.05)
same,Significant reduction in target transcript abundance compared to LPS-stimulated BV2 lysates: IL-6,BV2 microglia [3]; dose 100 nM,NS
same,Significant reduction in target transcript abundance compared to LPS-stimulated BV2 lysates: NLRP3,BV2 microglia [3]; dose 100 nM,++ (“++” indicates a p value < 0.01)
same,Significant reduction in target transcript abundance compared to LPS-stimulated BV2 lysates: iNOS,BV2 microglia [3]; dose 100 nM,++ (“++” indicates a p value < 0.01)
same,Significant reduction in target transcript abundance compared to LPS-stimulated BV2 lysates: IL-1β,BV2 microglia [3]; dose 1 μM,++ (“++” indicates a p value < 0.01)
same,Significant reduction in target transcript abundance compared to LPS-stimulated BV2 lysates: IL-6,BV2 microglia [3]; dose 1 μM,+ (“+” indicates a p value < 0.05)
same,Significant reduction in target transcript abundance compared to LPS-stimulated BV2 lysates: NLRP3,BV2 microglia [3]; dose 1 μM,+ (“+” indicates a p value < 0.05)
same,Significant reduction in target transcript abundance compared to LPS-stimulated BV2 lysates: iNOS,BV2 microglia [3]; dose 1 μM,++ (“++” indicates a p value < 0.01)
